In one series the test system is MDCK. In words: Inhibition of [3H]glutathione uptake at glutathione transporter in MDCK cells at 10 nM to 1000 nM by HPLC. The series is classed as cell-based. As to conditions: Canis lupus familiaris.
Series [1] is described as follows: Metabolic stability in rat brain at 37 degC. The series is classed as ADME, tissue-based.
A short description of series [2]: Metabolic stability in rat plasma at 37 degC. The series is classed as ADME, cell-free.
Series [3] in a line: Stability in buffer solution at pH 7.2.

Activity calls are given as the source filed them. The rule behind the calls is not given here.

Take `N[C@@H](CNC(=O)N[C@@H](CSSCC(=O)C(=O)NCCc1ccc(O)c(O)c1)C(=O)NCC(=O)O)C(=O)O`: the result in the series on MDCK was Active. The values for the half-life in series [1], in series [2] and in series [3] were 360 min, 180 min and over 720 min, respectively.
Turning to `N[C@@H](CNC(=O)N[C@@H](CSSCC(=O)C(=O)NC12CC3CC(CC(C3)C1)C2)C(=O)NCC(=O)O)C(=O)O`, the outcome in the series on MDCK was Active.

Source of the values: ChEMBL document CHEMBL1155946, “Design, synthesis and biological evaluation of glutathione peptidomimetics as components of anti-Parkinson prodrugs” (J Med Chem, 2008).
